Measurements from PMC5826148, “Whole-Cell Screen of Fragment Library Identifies Gut Microbiota Metabolite Indole Propionic Acid as Antitubercular” (Antimicrobial Agents and Chemotherapy, 2018).
Converted amounts (≈) assume the structure as drawn.

Tests used:
M. tuberculosis H37Rv [1] = experiment: M. tuberculosis growth inhibition dose-response (MIC50), turbidity readout; format: cell-based, Mycobacterium tuberculosis; conditions: Mycobacterium tuberculosis, 240 h; H37Rv, 10 days; read-out: Antibacterial activity (MIC50) M. tuberculosis
M. tuberculosis H37Rv [2] = experiment: Bactericidal activity, CFU enumeration on agar after treatment; format: cell-based, Mycobacterium tuberculosis; conditions: Mycobacterium tuberculosis, H37RV; M. tuberculosis; 1 mM; log CFU/ml reduction from initial inoculum; read-out: Bactericidal activity (log reduction) at 1 mM
M. tuberculosis = experiment: Growth inhibition in acidic medium (pH 6.2); format: cell-based, Mycobacterium tuberculosis; conditions: Mycobacterium tuberculosis, pH 6.2; read-out: Activity (MIC50) in acidic medium (pH 6.2)
M. bovis BCG Pasteur = experiment: microbe, parasite or virus in culture; format: cell-based; conditions: Mycobacterium tuberculosis variant bovis BCG, BCG, read-out: Antibacterial activity (MIC50) M. bovis BCG
M. smegmatis = experiment: Spectrum of activity: M. smegmatis growth inhibition; format: cell-based; conditions: Mycolicibacterium smegmatis, 24 h; 1 day; read-out: Antibacterial activity (MIC50) M. smegmatis
M. avium = experiment: Spectrum of activity: M. avium growth inhibition; format: cell-based; conditions: Mycobacterium avium, 96 h; 4 days; read-out: Antibacterial activity (MIC50) M. avium
M. abscessus = experiment: Spectrum of activity: M. abscessus growth inhibition; format: cell-based; conditions: Mycobacteroides abscessus, 72 h; 3 days; read-out: Antibacterial activity (MIC50) M. abscessus
Staphylococcus aureus = experiment: Spectrum of activity: S. aureus growth inhibition; format: cell-based; conditions: Staphylococcus aureus; LB medium, overnight; read-out: Antibacterial activity (MIC50) S. aureus
Escherichia coli = experiment: Spectrum of activity: E. coli growth inhibition; format: cell-based; conditions: Escherichia coli; LB medium, overnight; read-out: Antibacterial activity (MIC50) E. coli
[3] = tested on: human red blood cells (RBCs); experiment: Red blood cell lysis assay; conditions: hemolysis
[4] = Cytotoxicity assay, THP-1 cells (CellTiter 96 AQueous One); conditions: human
[5] = Cytotoxicity assay, HepG2 cells (CellTiter 96 AQueous One); conditions: human, HepG2 cells
M. tuberculosis H37Rv [6] = experiment: Mouse model of acute M. tuberculosis infection; conditions: INH 25 mg/kg
[7] = Day 42, IPA 100 mg/kg, oral gavage 6 days/week, 4 weeks

SMILES | MIC50 (M. tuberculosis H37Rv [1]) | log reduction at 1000 µM (M. tuberculosis H37Rv [2]) | MIC50 (M. tuberculosis) | MIC50 (M. bovis BCG Pasteur) | MIC50 (M. smegmatis) | MIC50 (M. avium) | MIC50 (M. abscessus) | MIC50 (Staphylococcus aureus) | MIC50 (Escherichia coli) | RBCs HC50 [3] | CC50 at 24 h [4] | CC50 at 24 h [5] | Lungs CFU log10, mean difference from drug-free control (M. tuberculosis H37Rv [6]; [7]) | Spleen CFU log10, mean difference from drug-free control (M. tuberculosis H37Rv [6]; [7]) | effect on bacterial load of spleen (M. tuberculosis H37Rv [6]; 4 weeks of monotherapy)
Cc1ccc(-c2cc(C(=O)O)c(C)o2)cc1 [Fragment F24, 2-Methyl-5-(4-methylphenyl)-3-furoic acid] | 316 µM (≈ 68.3 µg/mL) | 2.02 | 120 µM (≈ 25.9 µg/mL) | 193 µM (≈ 41.7 µg/mL) | > 500 µM | 458 µM (≈ 99 µg/mL) | > 500 µM | > 500 µM | > 500 µM | >1,000 μM | 887 µM | 984 µM |  |  | 
O=C(O)c1csc2ccc(Cl)cc12 [Fragment F25, 5-Chloro-1-benzothiophene-3-carboxylic acid] | 319 µM (≈ 67.8 µg/mL) | 2.1 | 94 µM (≈ 20 µg/mL) | 367 µM (≈ 78 µg/mL) | 98 µM (≈ 20.8 µg/mL) | 489 µM (≈ 104 µg/mL) | 257 µM (≈ 54.7 µg/mL) | > 500 µM | > 500 µM | 945 µM | 876 µM | 765 µM |  |  | 
O=C(O)c1ccc(-c2ccsc2)cc1 [Fragment F26, 4-(3-Thienyl)benzoic acid] | 320 µM (≈ 65.4 µg/mL) | 1.35 | 125 µM (≈ 25.5 µg/mL) | > 500 µM | > 500 µM | > 500 µM | 497 µM (≈ 102 µg/mL) | > 500 µM | > 500 µM | >1,000 μM | 978 µM | 944 µM |  |  | 
Oc1noc2cc(Cl)ccc12 [Fragment F27, 6-Chlorobenzo[d]isoxazol-3-ol] | 395 µM (≈ 67 µg/mL) | 1.05 | 210 µM (≈ 35.6 µg/mL) | > 500 µM | > 500 µM | > 500 µM | > 500 µM | > 500 µM | > 500 µM | >1,000 μM | 777 µM | > 1000 µM |  |  | 
OCc1csc(-c2ccc(C(F)(F)F)cc2)n1 [Fragment F28, {2-[4-(Trifluoromethyl)phenyl]-1,3-thiazol-4-yl}methanol] | 434 µM (≈ 113 µg/mL) | 1.21 | 215 µM (≈ 55.7 µg/mL) | 398 µM (≈ 103 µg/mL) | 235 µM (≈ 60.9 µg/mL) | 325 µM (≈ 84.3 µg/mL) | 253 µM (≈ 65.6 µg/mL) | > 500 µM | > 500 µM | 786 µM | 940 µM | > 1000 µM |  |  | 
Oc1ccc(Oc2ccccc2)cc1 [Fragment F29, 4-Phenoxyphenol] | 439 µM (≈ 81.7 µg/mL) | 1.09 | 118 µM (≈ 22 µg/mL) | 387 µM (≈ 72.1 µg/mL) | 250 µM (≈ 46.6 µg/mL) | 411 µM (≈ 76.5 µg/mL) | 267 µM (≈ 49.7 µg/mL) | 348 µM (≈ 64.8 µg/mL) | 201 µM (≈ 37.4 µg/mL) | 912 µM | 145 µM | 202 µM |  |  | 
NNC(=O)c1ccncc1 [INH, isoniazid, reference compound] |  |  |  |  |  |  |  |  |  |  |  |  | -3.82 log10 CFU | -5.49 log10 CFU | sterilized the spleen
